The values that follow come from patent US20250034170A1, “SMALL MOLECULE MODULATORS OF GLUCOCEREBROSIDASE ACTIVITY AND USES THEREOF” (Vanqua Bio, Inc., priority 2021, published 2025).

As a reminder, the EC50 is the concentration at which the effect is half-maximal. Higher therefore signals weaker potency.

One assay deals with T1, GCase (Homo sapiens, UniProt P04062).
T1 construct: endogenous in cells; host or cells: HeLa cells
T1 sequence (P04062 40-536): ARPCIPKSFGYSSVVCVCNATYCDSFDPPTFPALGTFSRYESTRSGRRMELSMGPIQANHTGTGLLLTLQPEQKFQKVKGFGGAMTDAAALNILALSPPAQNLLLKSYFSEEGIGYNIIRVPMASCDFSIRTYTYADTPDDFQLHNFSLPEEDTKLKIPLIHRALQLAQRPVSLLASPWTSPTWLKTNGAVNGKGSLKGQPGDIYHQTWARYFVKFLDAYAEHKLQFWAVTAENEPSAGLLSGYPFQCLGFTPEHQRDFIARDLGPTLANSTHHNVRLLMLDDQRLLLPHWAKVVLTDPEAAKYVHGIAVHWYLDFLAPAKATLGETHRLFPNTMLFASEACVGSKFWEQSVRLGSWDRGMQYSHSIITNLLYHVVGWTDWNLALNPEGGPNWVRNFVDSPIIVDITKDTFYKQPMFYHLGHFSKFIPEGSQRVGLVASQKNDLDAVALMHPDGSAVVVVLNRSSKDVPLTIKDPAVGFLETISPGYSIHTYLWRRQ
Description: activation of GCase in a live cell PFB assay in HELA cells. The format is cell-based. Particulars: EC50 given as range classes. As for the experimental part: Exemplary compounds were evaluated for activation of GCase in a live cell PFB assay in HELA cells (essentially as described in Ysselstein et al., “LRRK2 kinase activity regulates lysosomal glucocerebrosidase in neurons derived from Parkinson's disease patients” Nature Communications (2019) 10:5570). […] EC50 ranges: A: <10 μM; B: >10-50 μM; C: >50-100 μM; D: >100 μM.
The molecule `O=C1CC2(CN1c1ccc(C(F)(F)F)nc1)C1CCC2CN(c2cnc3cnn(CC(F)F)c3n2)C1` (stereo not shown) [Cmpd 804] showed a concentration for a half-maximal effect (EC50) of 10 to 50 µM.
Same read-out and setting: the value for `O=C1CC2(CN1c1cnc(C(F)(F)F)cn1)C1CCC2CN(c2cnc3cnn(CC(F)F)c3n2)C1` (stereo not shown) [Cmpd 805] was 10 to 50 µM.
On the same count and under the same terms, the value for `O=C1CC2(CN1c1cncc(C(F)(F)F)n1)C1CCC2CN(c2cnc3cnn(CC(F)F)c3n2)C1` (stereo not shown) [Cmpd 806] was 10 to 50 µM; that for `FC(F)Cn1ncc2ncc(N3CCC4(CCN(c5ccc(C(F)(F)F)nc5)CC4)CC3)nc21` [Cmpd 807] was less than 10 µM; that for `FC(F)Cn1ncc2ncc(N3CCC4(CCN(c5cncc(C(F)(F)F)c5)CC4)CC3)nc21` [Cmpd 808] was 10 to 50 µM.
The molecule `FC(F)Cn1ncc2ncc(N3CCC4(CCN(c5cccc(C(F)(F)F)n5)CC4)CC3)nc21` [Cmpd 809] had an EC50 of less than 10 µM.
As to `FC(F)Cn1ncc2ncc(N3CCC4(CCN(c5ccc(C(F)(F)F)cn5)CC4)CC3)nc21` [Cmpd 810], the EC50 was 10 to 50 µM.
Still for that read-out and setting: the value for `FC(F)Cn1ncc2ncc(N3CCC4(CCN(c5cc(C(F)(F)F)ccn5)CC4)CC3)nc21` [Cmpd 811] was less than 10 µM; that for `FC(F)Cn1ncc2ncc(N3CCC4(CCN(c5ccnc(C(F)(F)F)c5)CC4)CC3)nc21` [Cmpd 812] was less than 10 µM.
Consider `FC(F)Cn1ncc2ncc(N3CCC4(CCN(c5cncc(C(F)(F)F)n5)CC4)CC3)nc21` [Cmpd 813], for which the EC50 is less than 10 µM.
For the molecule `FC(F)Cn1ncc2ncc(N3CCC4(CCN(c5cnc(C(F)(F)F)cn5)CC4)CC3)nc21` [Cmpd 814], the EC50 was less than 10 µM.
Same read-out and setting: the result for `CC1(C)CC2(CCN(c3cnc4cnn(CC(F)F)c4n3)CC2)C(=O)N1c1ccc(C(F)(F)F)nc1` [Cmpd 815] reads 10 to 50 µM; that for `CC1(C)N(c2ccc(C(F)(F)F)nc2)C(=O)CC12CCN(c1cnc3cnn(CC(F)F)c3n1)CC2` [Cmpd 816], 10 to 50 µM; that for `O=C1N(c2ccnc(C(F)(F)F)c2)C(=O)C2(CCN(c3cnc4cnn(CC(F)F)c4n3)CC2)N1Cc1cc(F)cc(F)c1` [Cmpd 817], less than 10 µM.
Molecule `O=C1N(c2ccc(C(F)(F)F)nc2)C(=O)C2(CCN(c3cnc4cnn(CC(F)F)c4n3)CC2)N1Cc1cc(F)cc(F)c1` [Cmpd 818] came in with an EC50 of less than 10 µM.
On the same count and under the same terms, the result for `O=C1N(c2cnc(C(F)(F)F)nc2)C(=O)C2(CCN(c3cnc4cnn(CC(F)F)c4n3)CC2)N1Cc1cc(F)cc(F)c1` [Cmpd 819] reads less than 10 µM; that for `O=C1N(c2cncc(C(F)(F)F)n2)C(=O)C2(CCN(c3cnc4cnn(CC(F)F)c4n3)CC2)N1Cc1cc(F)cc(F)c1` [Cmpd 820], less than 10 µM.
`O=C1N(c2cnc(C(F)(F)F)cn2)C(=O)C2(CCN(c3cnc4cnn(CC(F)F)c4n3)CC2)N1Cc1cc(F)cc(F)c1` [Cmpd 821] gave an EC50 of less than 10 µM.
Same read-out and setting: the value for `CCOCCN1C(=O)N(c2cc(C(F)(F)F)ccn2)C(=O)C12CCN(c1cnc3cnn(CC(F)F)c3n1)CC2` [Cmpd 822] was more than 100 µM; that for `FC(F)(F)c1ncc(N2CCC3(CCN(c4cncc(-c5nncs5)n4)CC3)C2)cn1` [Cmpd 823] was 10 to 50 µM.
Same read-out and setting: the value for `FC(F)(F)c1cnc(N2CCC3(CCN(c4cncc(-c5nncs5)n4)CC3)C2)cn1` [Cmpd 824] was 10 to 50 µM; that for `FC(F)(F)c1ccc(N2CCC3(CCN(c4cncc(-c5nncs5)n4)CC3)C2)nn1` [Cmpd 825] was 10 to 50 µM.
In the case of `FC(F)Cn1ncc2cnc(N3CCC4(CCN(c5ccc(C(F)(F)F)nc5)C4)CC3)nc21` [Cmpd 827], the EC50 is 10 to 50 µM.
Consider `O=C1CC2(CCN(c3ncc4cnn(CC(F)F)c4n3)CC2)CN1c1ccc(C(F)(F)F)nc1` [Cmpd 828], for which the EC50 was in the range of 10 to 50 µM.
The same measure, in the same setting: the value for `Cc1nn(CC(F)F)c2nc(N3CCC4(CCN(c5cnc(C(F)(F)F)nc5)C4)CC3)cnc12` [Cmpd 829] was less than 10 µM.
On the same count and under the same terms, the value for `Cc1nn(CC(F)F)c2nc(N3CCC4(CCN(c5ccc(C(F)(F)F)nc5)C4)CC3)ncc12` [Cmpd 830] was less than 10 µM.
Regarding `Cc1nn(CC(F)F)c2nc(N3CCC4(CC3)CCN(c3ccc(C(F)(F)F)nc3)C4=O)ncc12` [Cmpd 831], the EC50 fell in the range of 10 to 50 µM.
Still for that read-out and setting: the value for `Cc1nn(CC(F)F)c2nc(N3CCC4(CC3)CC(=O)N(c3ccc(C(F)(F)F)nc3)C4)ncc12` [Cmpd 832] was less than 10 µM; that for `COc1nn(CC(F)F)c2nc(N3CCC4(CCN(c5ccc(C(F)(F)F)nc5)C4)CC3)cnc12` [Cmpd 833] was less than 10 µM.

The assay is the same for the next values; noted with them: activation of GCase, EC50 ranges.
Take `COc1nc2cnn(CC(F)F)c2nc1N1CCC2(CC1)CCN(c1ccc(C(F)(F)F)nc1)C2=O` [Cmpd 834]: the EC50 is less than 10 µM.
Take `COc1nn(CC(F)F)c2nc(N3CCC4(CC3)CCN(c3ccc(C(F)(F)F)nc3)C4=O)cnc12` [Cmpd 835]: the EC50 is less than 10 µM.
On the same count and under the same terms, the result for `COc1nc2cnn(CC(F)F)c2nc1N1CCC2(CC1)CC(=O)N(c1ccc(C(F)(F)F)nc1)C2` [Cmpd 836] reads less than 10 µM.
Take `COc1nn(CC(F)F)c2nc(N3CCC4(CC3)CC(=O)N(c3ccc(C(F)(F)F)nc3)C4)cnc12` [Cmpd 837]: the EC50 was less than 10 µM.
Same read-out and setting: the value for `O=C1N(c2nc(C(F)(F)F)co2)CCC12CCN(c1cnc3cnn(CC(F)F)c3n1)CC2` [Cmpd 838] was 10 to 50 µM; that for `O=C1N(c2nnc(C(F)(F)F)o2)CCC12CCN(c1cnc3cnn(CC(F)F)c3n1)CC2` [Cmpd 839] was less than 10 µM; that for `O=C1N(c2nnc(C(F)(F)F)s2)CCC12CCN(c1cnc3cnn(CC(F)F)c3n1)CC2` [Cmpd 840] was less than 10 µM.
The same measure, in the same setting: the result for `O=C1N(c2cnc(C(F)(F)F)s2)CCC12CCN(c1cnc3cnn(CC(F)F)c3n1)CC2` [Cmpd 841] reads less than 10 µM; that for `Cc1cnc(C(F)(F)F)nc1N1CCC2(CCN(c3cnc4cnn(CC(F)F)c4n3)CC2)C1=O` [Cmpd 842], 10 to 50 µM.
`O=C1N(Cc2cnc(C(F)(F)F)nc2)CCC12CCN(c1cnc3cnn(CC(F)F)c3n1)CC2` [Cmpd 843] displayed an EC50 of 10 to 50 µM.
`O=C1N(Cc2ccnc(C(F)(F)F)n2)CCC12CCN(c1cnc3cnn(CC(F)F)c3n1)CC2` [Cmpd 844] registered an EC50 of less than 10 µM.
Same read-out and setting: the value for `Cn1cc(N2CCC3(CCN(c4cnc5cnn(CC(F)F)c5n4)CC3)C2=O)ccc1=O` [Cmpd 845] was 10 to 50 µM; that for `CCn1cc(N2CCC3(CCN(c4cnc5cnn(CC(F)F)c5n4)CC3)C2=O)ccc1=O` [Cmpd 846] was 10 to 50 µM; that for `CCn1nc(N2CCC3(CCN(c4cnc5cnn(CC(F)F)c5n4)CC3)C2=O)ccc1=O` [Cmpd 847] was 10 to 50 µM.
`CC(C)N1C(=O)N(c2ccc(C(F)(F)F)nc2)C(=O)C12CCN(c1cnc3cnn(CC(F)F)c3n1)CC2` [Cmpd 848] yielded an EC50 of 10 to 50 µM.
In turn, `CCN1C(=O)N(c2ccc(C(F)(F)F)nc2)C(=O)C12CCN(c1cnc3cnn(CC(F)F)c3n1)CC2` [Cmpd 849] registered an EC50 of less than 10 µM.
Still for that read-out and setting: the result for `CCN1C(=O)N(c2ccnc(C(F)(F)F)c2)C(=O)C12CCN(c1cnc3cnn(CC(F)F)c3n1)CC2` [Cmpd 850] reads less than 10 µM; that for `CCC1N(c2ccc(C(F)(F)F)cn2)C(=O)CC12CCN(c1cnc3cnn(CC(F)F)c3n1)CC2` (stereo not shown) [Cmpd 851], less than 10 µM; that for `CCC1N(c2ccc(C(F)(F)F)nc2)C(=O)CC12CCN(c1cnc3cnn(CC(F)F)c3n1)CC2` (stereo not shown) [Cmpd 852], 10 to 50 µM.
In the case of `CCC1N(c2ccnc(C(F)(F)F)c2)C(=O)CC12CCN(c1cnc3cnn(CC(F)F)c3n1)CC2` (stereo not shown) [Cmpd 853], the EC50 is 10 to 50 µM.
Still for that read-out and setting: the value for `CC[C@H]1N(c2ccnc(C(F)(F)F)c2)C(=O)CC12CCN(c1cnc3cnn(CC(F)F)c3n1)CC2` [Cmpd 854] was 10 to 50 µM.
Same read-out and setting: the value for `CC[C@@H]1N(c2ccnc(C(F)(F)F)c2)C(=O)CC12CCN(c1cnc3cnn(CC(F)F)c3n1)CC2` [Cmpd 855] was 10 to 50 µM; that for `O=C1CC2(CCN(c3cnc4cnn(C5COC5)c4n3)CC2)CN1c1ccc(C(F)(F)F)nc1` [Cmpd 856] was 10 to 50 µM; that for `O=C1CC2(CCN(c3cnc4cnn(C5COC5)c4n3)CC2)CN1c1ccc(C(F)(F)F)cn1` [Cmpd 857] was less than 10 µM.
On the same count and under the same terms, the result for `CCC1N(c2ccc(C(F)(F)F)nc2)C(=O)CC12CCN(c1cnc3cnn(C4COC4)c3n1)CC2` (stereo not shown) [Cmpd 858] reads 10 to 50 µM.
With `CCC1N(c2ccc(C(F)(F)F)cn2)C(=O)CC12CCN(c1cnc3cnn(C4COC4)c3n1)CC2` (stereo not shown) [Cmpd 859], the EC50 lay in the range of 10 to 50 µM.
In turn, `CCN1C(=O)N(c2cnc3cnn(CC(F)F)c3n2)C(=O)C12CCN(c1ccc(C(F)(F)F)cn1)CC2` [Cmpd 860] yielded an EC50 of 10 to 50 µM.
For `CCN1C(=O)N(c2cnc3cnn(CC(F)F)c3n2)C(=O)C12CCN(c1ccc(C(F)(F)F)nc1)CC2` [Cmpd 861], the EC50 was less than 10 µM.
Still for that read-out and setting: the value for `O=C1CC2(CCN(c3cnc4cnn(C5COC5)c4n3)CC2)CN1c1cnc(C(F)(F)F)cn1` [Cmpd 862] was more than 100 µM; that for `O=C1C[C@@]2(CC3CCC2CN3c2cnc3cnn(CC(F)F)c3n2)CN1c1ccc(C(F)(F)F)cn1` (stereo partly shown) [Cmpd 863] was less than 10 µM.
In the case of `O=C1C[C@]2(CC3CCC2CN3c2cnc3cnn(CC(F)F)c3n2)CN1c1ccc(C(F)(F)F)cn1` (stereo partly shown) [Cmpd 864], the EC50 was in the range of 10 to 50 µM.
On the same count and under the same terms, the result for `O=C1CC2(CC3CCC2CN3c2cnc3cnn(CC(F)F)c3n2)CN1c1ccc(C(F)(F)F)nc1` (stereo not shown) [Cmpd 865] reads 10 to 50 µM.
